Results on nine compounds are retold here after patent EP1970064A1, “Silicon-derivatives for pet-imaging” (Bayer Schering Pharma Aktiengesellschaft, priority 2007, dated 2008).

A short description of this data set: Hydrolytic stability: hydrolysis of the 19F fluorosilane to the silanol at physiological pH (7.0). It is filed as physicochemical. To be noted: hydrolytic halflife of the 19F compound at pH 7.0, calculated from the kinetics. The method, then: The time dependent degree of hydrolysis of compounds of formula I in which X is a fluorine atom of isotope 19 to compounds of formula I in which X is a hydroxy group was determined at physiological pH (7.0). From the kinetics the hydrolytic halflife (t1/2) measured in hours [h] of compounds of formula I in which X is a fluorine atom of isotope 19 were calculated (Table 1, column 2).
The ratio of the hydrolytic halflifes of compounds of formula I in which X is a fluorine atom of isotope 19 and the radioactive halflife of the 18-F isotope (1.83 hours) is defined as relative stability (Table 1, column 3).
After 6 hours 90% of the 18-F isotope have been decayed.
Compounds of formula I in which X is a fluorine atom of isotope 18 are considered as useful for PET applications if the relative stability of their analogs bearing a fluorine atom of isotope 19 exceed a factor of four and if at least 50% of these compounds remain intact after 6 hours under hydrolytic conditions at pH 7.
With `CC(C)[Si](F)(c1cccc(CCCOC2CCCCO2)c1)C(C)C` (racemic) [Compound 3d - F, (RS)-Fluoro-diisopropyl-{3-[3-(tetrahydro-pyran-2-yloxy)-propyl]-phenyl}-silane], the t1/2 was over 100.0 h.

On to `CC(C)C[Si](F)(CC(C)C)c1ccc(C(=O)O)cc1` [Compound 5g-F, 4-(Fluoro-diisobutyl-silanyl)-benzoic acid], for which the t1/2 is given as 3.5 h.

As to `CC(C)[Si](F)(c1ccc(CCC(=O)O)cc1)C(C)C` [Compound 5c - F, 3-[4-(Fluoro-diisopropyl-silanyl)-phenyl]-propionic acid], the t1/2 is recorded as 59.0 h. As for `CC(C)[Si](F)(c1cccc(CC(=O)O)c1)C(C)C` [Compound 5e - F, [3-(Fluoro-diisopropyl-silanyl)-phenyl]-acetic acid], the t1/2 is 20.0 h. For `F[Si](c1ccccc1)(c1ccccc1)c1ccc(CCOC2CCCCO2)cc1` (racemic) [Compound 3f-F, (RS)-Fluoro-diphenyl-{4-[2-(tetrahydro-pyran-2-yloxy)-ethyl]-phenyl}-silane], the t1/2 was 0.07 h. In the case of `CC(C)[Si](F)(c1ccc(CCCO)cc1)C(C)C` [Compound 4c - F, 3-[4-(Fluoro-diisopropyl-silanyl)-phenyl]-propan-1-ol], the t1/2 is recorded as over 100.0 h. With `CC(C)[Si](F)(c1cccc(CCOC2CCCCO2)c1)C(C)C` (racemic) [Compound 3e - F, (RS)-Fluoro-diisopropyl-{3-[2-(tetrahydro-pyran-2-yloxy)-ethyl]-phenyl}-silane], the t1/2 is reported as over 100.0 h. Regarding `CC(C)C[Si](F)(CC(C)C)c1ccc(CC(=O)O)cc1` [Compound 5h-F, [4-(Fluoro-diisobutyl-silanyl)-phenyl]-acetic acid], the t1/2 is 8.7 h. In the case of `CC(C)C[Si](F)(CC(C)C)c1ccc(COC2CCCCO2)cc1` (racemic) [Compound 3g-F, (RS)-Fluoro-diisobutyl-[4-(tetrahydro-pyran-2-yloxymethyl)-phenyl]-silane], the t1/2 is 8.1 h.
